{"source": "patent US20250099412A1", "about": "“METHOD OF INHIBITING DEGRADING PROTEASE ACTIVITY IN AGING” (The Regents of the University of California, priority 2022, published 2025)", "key": {"mucin": {"system": "mucin", "assay": "Mucin-containing mucus layer of small intestine stained with alcian blue", "type": "in vivo, rat", "conditions": "old rats (100 weeks), two-week oral treatment; compared with old and young rats; FIG. 3B", "from_the_text": "(§1) Male Wistar rats (Harlan Sprague Dawley Inc., Indianapolis, IN) at maturity (4 months, 300 to 350 gm) and old age (24 months, 375 to 450 gm) were included in the study. The animals were maintained on standard laboratory chow (8604 Teklad rodent diet; Harlan Laboratories, Indianapolis, IN) without restriction and water ad libitum and maintained in separated room without pathogen-free conditions. […] A subgroup of old animals was given a serine protease inhibitor (tranexamic acid, 14 days) in drinking water (137 mM, exchanged daily) which at a minimum fluid consumption of 40 ml/day amounts to a minimum dose of 0.39 gm/kg/day for 350 gm body weight (BW). […]\n(§2) Images of the immunolabel density were recorded at different magnifications, from relatively low power overviews of the tissue (10× objective, numerical aperture 0.25) to higher magnification of single cells (at 60× oil immersion objective, numerical aperture 1.4). The images were recorded under standard light conditions under fixed settings of the substage condenser with a digital camera (Spot Insight GIGABIT camera, Sterling Height), so that the camera serves as a quantitative light intensity meter. Images were analyzed on a laboratory computer to minimize operator error (NIH Image, 1.61, public domain software, spatial resolution of 640×480 pixel). […]"}, "amylase": {"system": "amylase", "assay": "Amylase staining of epithelial cells of the small intestine", "type": "in vivo, rat", "conditions": "old rats (100 weeks), oral treatment for two weeks; compared with old and young rats; FIG. 3B", "from_the_text": "(§3) Male Wistar rats (Harlan Sprague Dawley Inc., Indianapolis, IN) at maturity (4 months, 300 to 350 gm) and old age (24 months, 375 to 450 gm) were included in the study. The animals were maintained on standard laboratory chow (8604 Teklad rodent diet; Harlan Laboratories, Indianapolis, IN) without restriction and water ad libitum and maintained in separated room without pathogen-free conditions. […] A subgroup of old animals was given a serine protease inhibitor (tranexamic acid, 14 days) in drinking water (137 mM, exchanged daily) which at a minimum fluid consumption of 40 ml/day amounts to a minimum dose of 0.39 gm/kg/day for 350 gm body weight (BW)."}, "pancreatic trypsin": {"system": "pancreatic trypsin", "assay": "Pancreatic trypsin immunohistochemistry on rat tissue sections (young, old, old-treated)", "type": "in vivo", "conditions": "old rats (100 weeks), compared with old and young (16 weeks) rats", "from_the_text": "as §3\nA femoral venous catheter was placed after general anesthesia (pentobarbital sodium, 50 mg/kg [Abbott Laboratories, North Chicago, IL], intramuscularly after local anesthesia with 2% lidocaine HCl [Hospira, Inc, Lake Forrest, IL]). […]\nTo determine on the tissue sections the immunolabel density and distribution of serine proteases, pancreatic trypsin MoAb (D-1): sc-137077 (Santa Cruz) primary antibody was used, followed by secondary antibodies (MP-7601 for anti-rabbit IgG; MP-7602 for anti-mouse IgG; ImmPRESS Excel staining kit peroxidase). […] No counterstain was applied to facilitate quantitative label intensity measurements and since cellular and vascular structures are readily identified. […] All procedures were carried out under standardized conditions to permit quantitative comparison of label densities.\nSmall intestine: Full thickness tissue blocks of the wall of proximal jejunum (3 by 5 mm) were fixed from all sides in 10% formaldehyde. Serine proteases were detected with primary and secondary antibodies labeled with DAB (Peroxidase Substrate Kit, ab64238, ABCAM).\nImages of the immunolabel density were recorded at different magnifications, from relatively low power overviews of the tissue (10× objective, numerical aperture 0.25) to higher magnification of single cells (at 60× oil immersion objective, numerical aperture 1.4). […]"}, "collagen": {"system": "collagen", "assay": "Collagen fragment labeling with biotin conjugated collagen hybridizing peptides (B-CHP)", "type": "in vivo, rat", "conditions": "old rats (100 weeks), two-week oral treatment, compared with old and young (16 weeks) rats", "from_the_text": "as §1\nTissue sections were stained with B-CHP (stock solution, 150 mM; final applied solution 7.5. mM). […] The B-CHP label intensity on the sections was recorded by digital microscopy.\nas §2, with “meter.” for “meter. Images were analyzed on a laboratory computer to minimize operator error (NIH Image, 1.61, public domain software, spatial resolution of 640×480 pixel).”"}}, "data": [{"smiles": "NC[C@H]1CC[C@H](C(=O)O)CC1", "note": "[tranexamic acid]", "values": [{"measurement": "mucin label density in villi of small intestine", "setting": "mucin", "value": "partially restored"}, {"measurement": "increase in amylase in the small intestine of old rats", "setting": "amylase", "value": "attenuated"}, {"measurement": "pancreatic trypsin accumulation in cardiac muscle", "setting": "pancreatic trypsin; two-week oral treatment (137 mM in drinking water), FIG. 1A", "value": "reduces pancreatic trypsin accumulation"}, {"measurement": "pancreatic trypsin accumulation in brain", "setting": "pancreatic trypsin; two-week oral treatment, FIG. 2A", "value": "reduces pancreatic trypsin accumulation"}, {"measurement": "pancreatic trypsin accumulation in intestine", "setting": "pancreatic trypsin; two-week oral treatment, FIG. 3A", "value": "reduces pancreatic trypsin accumulation in old rats (100 weeks) to similar levels seen in young rats"}, {"measurement": "collagen fragmentation in cardiac muscle", "setting": "collagen; FIG. 1B", "value": "reduces collagen fragmentation in cardiac muscle in old-treated rats below levels seen in old rats to levels similar to those seen in young rats"}, {"measurement": "collagen fragmentation in brain", "setting": "collagen; FIG. 2B", "value": "reduces collagen fragmentation in rat brain in old-treated rats below levels seen in old rats to levels similar to those seen in young rats"}]}]}
